Here are results for three substances from patent publication US7319087B2, “Antimicrobial polypeptide from Aspergillus niger” (Novozymes A/S, priority 2001, dated 2008).

No end group written: not given here.

For data set [1] the following is noted: A. giganteus peptide, 51 amino acids; Campos-Olivas et al. (1995); cited from earlier work.
The subject of a further data set is A. niger MBin118. Nature of the data set: Growth of transformants expressing the polypeptide in tubes with YPM (2% maltose). It is filed as cell-based, Aspergillus niger. To be noted: A. niger MBin118 transformed with expression plasmid, 6 days, 10 ml YPM (2% maltose). From the text:
(§1) The A. niger anti-microbial polypeptide was inserted in the Aspergillus expression vector pMT2188 to give pMT2446 (i.e., pMT2188 with an insert comprising the A. niger anti-microbial gene): pMT2446 was transformed into A. oryzae BECh2 (disclosed, e.g., on page 26 of WO 00/39322) and into A. niger MBin118. Thirty transformants of each strain were re-isolated twice under selective and non-inducing conditions on Cove minimal plates with sucrose and acetamide. To test expression of the anti-microbial polypeptide, transformants were grown for 6 days in tubes with 10 ml YPM (2% maltose). Supernatants were run on NuPage 10% Bis-Tris SDS gels with MES running buffer to allow separation in the low mw range.

The next data set has as its system A. oryzae BECh2. Described as above. Particulars: A. oryzae BECh2 transformed with expression plasmid, 6 days, 10 ml YPM (2% maltose). It is filed as cell-based, Aspergillus oryzae.
Excerpt: as §1

For the substance “A. giganteus peptide: anti-fungal peptide from Aspergillus giganteus (Nakaya et al. 1990), 51 amino acids, four S-S bridges (ATYNGKCYKKDNICKYKAQSGKTAICKCYVKKCPRDGAKCEFDSYKGKCYC; disulfide (positions not given here); not fully specified (bridges); also: four S-S bridges, pairing not given here; UniProt P17737 44-94, looked up)”, the pl in data set [1] was 9.3. Consider “A. giganteus anti-fungal polypeptide (AFP): A. giganteus anti-fungal polypeptide (AFP) disclosed in WO 94/01459 (ATYNGKCYKKDNICKYKAQSGKTAICKCYVKKCPRDGAKCEFDSYKGKCYC; UniProt P17737 44-94, looked up)”, for which the “growth on YPM of host transformants” value in the data set on A. niger MBin118 and in the data set on A. oryzae BECh2 was “Growth was inhibited” in each case. For the substance “A. niger anti-microbial polypeptide: 58 amino acid mature polypeptide with anti-microbial activity from Aspergillus niger, SEQ ID NO: 2 (positions 1 to 58), expressed from pMT2446 (MQLTSIAIILFAAMGAIANPIAAEADNLVAREAELSKYGGECSVEHNTCTYLKGGKDH; Aspergillus niger)”, the results for the “growth on YPM of host transformants” value with A. niger MBin118 and in the data set on A. oryzae BECh2 were “seemed to grow normally” and “seemed inhibited”, respectively.
